pEC50: −log10 of the molar value. *1 amine or outer side, *2 acyl side, *3 side chain or, on linkers, in order; H or OH if unused. Where a SMILES comes first, the peptide text is derived from it. Bridges are numbered along the chain shown (N, C = ends). [ ]: non-standard residue; d: D form. X48 = CCCC[C@@H](/C=C\[C@@H](Cc1cccnc1)C(=O)[*:2])N[*:1]; Ala(pyrimidin-5-yl) = N[C@@H](Cc1cncnc1)C(=O)O; X6 = O=C([C@H](Cc1cnn(C2COC2)c1)N[*:1])[*:2]; Nle(5,5-F2) = CC(F)(F)CC[C@H](N)C(=O)O; Phe(4-F) = N[C@@H](Cc1ccc(F)cc1)C(=O)O; Phe(2-F) = N[C@@H](Cc1ccccc1F)C(=O)O; NMe3Pal = CN[C@@H](Cc1cccnc1)C(=O)O; X1 = O=C(C12CC(CN[*:1])(C1)C2)[*:2]; X56 = O=C(C12CC(N[*:1])(C1)C2)[*:2]; X17 = O=C([C@H](CCCCF)N[*:1])[*:2]; Ala(cPr) = N[C@@H](CC1CC1)C(=O)O; NMeF = CN[C@@H](Cc1ccccc1)C(=O)O; PhLac = O=C(O)[C@@H](O)Cc1ccccc1; hIle = CC[C@H](C)C[C@H](N)C(=O)O; 4Pal = N[C@@H](Cc1ccncc1)C(=O)O; d3Pal = N[C@H](Cc1cccnc1)C(=O)O; Cba = N[C@@H](CC1CCC1)C(=O)O; NMeS = CN[C@@H](CO)C(=O)O; NMeA = CN[C@@H](C)C(=O)O; Nle = CCCC[C@H](N)C(=O)O; Nva = CCC[C@H](N)C(=O)O
Target: KRAS-G12D protein (Homo sapiens, UniProt P01116, G12D)
Assay: SOS-mediated nucleotide exchange assay (BODIPY-GDP / Tb-streptavidin TR-FRET)
Type: biochemical

Sequence of KRAS-G12D protein (P01116 1-188 isoform P01116-2 G12D): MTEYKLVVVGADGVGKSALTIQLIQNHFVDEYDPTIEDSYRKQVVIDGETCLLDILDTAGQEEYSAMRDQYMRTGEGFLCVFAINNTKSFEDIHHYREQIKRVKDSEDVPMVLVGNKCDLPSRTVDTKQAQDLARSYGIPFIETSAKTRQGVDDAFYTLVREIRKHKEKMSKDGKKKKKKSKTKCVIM

Row | Compound | pEC50
1 | C[C@H]1C(=O)N[C@@H](Cc2cnn(C3COC3)c2)C(=O)N[C@@H](CC2CC2)C(=O)N[C@@H](Cc2ccccc2F)C(=O)N[C@@H](CCC(C)(F)F)C(=O)N(C)[C@@H](Cc2ccccc2)C(=O)NCC23CC(C2)(C3)C(=O)O[C@@H](Cc2ccccc2)C(=O)N1C [compound 291, cyclo(FLac-NMcA-AlaPyzlOx-cPrA-Phe2F-Nle3F2-NMeF-amBCP)] (cyclo([Ala(cPr)][Phe(2-F)][Nle(5,5-F2)][NMeF][X1][PhLac][NMeA][X6])) | 9.00
2 | CCCC[C@@H]1NC(=O)[C@H](Cc2ccccc2)NC(=O)[C@H](C)N(C)C(=O)[C@H](Cc2ccccc2)OC(=O)C23CC(CNC(=O)[C@H](Cc4ccccc4)N(C)C(=O)[C@H](CCCC)NC(=O)[C@H](Cc4ccccc4F)NC1=O)(C2)C3 [compound 305, cyclo(FLac-NMeA-F-Nle-Phe2F-Nle-NMeF-amBCP)] (cyclo(F[Nle][Phe(2-F)][Nle][NMeF][X1][PhLac][NMeA])) | 5.75
3 | CCCC[C@H]1/C=C\[C@@H](Cc2cccnc2)C(=O)NCC23CC(C2)(C3)C(=O)O[C@@H](Cc2ccccc2)C(=O)N(C)[C@@H](C)C(=O)N[C@@H](Cc2cncnc2)C(=O)N[C@@H](CCCC)C(=O)N[C@@H](Cc2ccccc2F)C(=O)N1 [SEQ ID NO: 137, cyclo(FLac-NMeA- PyrimAla-Nle-Phe2F- Nlecalken3Pal-amBCP)] (cyclo([NMeA][Ala(pyrimidin-5-yl)][Nle][Phe(2-F)][X48][X1][PhLac])) | 6.23
4 | C[C@H]1C(=O)N[C@@H](Cc2cncnc2)C(=O)N[C@@H](CCCCF)C(=O)N[C@@H](Cc2ccccc2F)C(=O)N[C@@H](CCCCF)C(=O)N(C)[C@@H](Cc2ccccc2)C(=O)NCC23CC(C2)(C3)C(=O)O[C@@H](Cc2ccccc2)C(=O)N1C [compound 128, cyclo(FLac-NMeA-PyrimAla-NleF-Phe2F-NleF-NMeF-amBCP)] (cyclo([NMeA][Ala(pyrimidin-5-yl)][X17][Phe(2-F)][X17][NMeF][X1][PhLac])) | 7.43
5 | CCC[C@@H]1NC(=O)[C@H](Cc2ccc(OC)cc2)NC(=O)[C@H](C[C@@H](C)CC)NC(=O)[C@H](Cc2ccncc2)NC(=O)[C@H](CCCNC(=N)N)NC(=O)[C@H](Cc2ccc(F)cc2)NC(=O)CSC[C@H](C(=O)O)NC(=O)[C@H](Cc2ccccc2)N(C)C1=O [compound 62, cyclo(Phe4F-R-4Pal-hlle-TyrOMe-Nva-NMeF-dC-ClAc)] ({CH2CO}-[Phe(4-F)]R[4Pal][hIle]Y(Me)[Nva][NMeF][dC]-OH; thioether N-8) | 5.69
6 | CCCC[C@@H]1NC(=O)[C@H](Cc2cncnc2)NC(=O)[C@H](CO)N(C)C(=O)[C@H](Cc2ccccc2)OC(=O)C23CC(CNC(=O)[C@H](Cc4cccnc4)N(C)C(=O)[C@H](CCCC)NC(=O)[C@H](Cc4ccccc4F)NC1=O)(C2)C3 [compound 119, cyclo(FLac-NMeS-PyrimAla-Nle-Phe2F-Nle-NMe3Pal-amBCP)] (cyclo([NMe3Pal][X1][PhLac][NMeS][Ala(pyrimidin-5-yl)][Nle][Phe(2-F)][Nle])) | 6.43
7 | CCCCC[C@@H]1NC(=O)[C@H](Cc2ccc(O)cc2)NC(=O)[C@H](CC(C)C)NC(=O)[C@H](Cc2ccc(O)cc2)NC(=O)[C@@H](CCCNC(=N)N)NC(=O)[C@H](Cc2ccccc2)NC(=O)CSC[C@@H](C(N)=O)NC(=O)[C@H](Cc2ccccc2)N(C)C1=O [compound 4, cyclo(F-dR-Y-L-Y-Ahp-NMeF-Cl-ClAc)] | 5.48
8 | CCCC[C@@H]1NC(=O)[C@H](Cc2ccccc2F)NC(=O)[C@H](CC2CCC2)NC(=O)[C@@H](Cc2cccnc2)NC(=O)[C@H](CCCNC(=N)N)NC(=O)[C@H](Cc2ccccc2)NC(=O)C23CC(C2)(C3)NC(=O)[C@H](Cc2cccnc2)N(C)C1=O [compound 108, cyclo(F-R-d3Pal-cBuA-Phe2F-Nle-NMe3Pal-BCP)] (cyclo(FR[d3Pal][Cba][Phe(2-F)][Nle][NMe3Pal][X56])) | 5.95

Reference: patent publication US20260001914A1, “MACROCYCLIC PEPTIDES TARGETING KRAS” (Merck Sharp & Dohme LLC, priority 2022, published 2026)
